Data reported in patent US9428452B2, “Compounds” (Glaxo Group Limited, priority 2012, dated 2016).
Marks after values point to notes of the source that are not given here.

Columns and labels:
[1] = tested on: IL-17A secreted from antiCD3/CD28 stimulated Peripheral Blood Mononuclear cells (PBMC); experiment: Peripheral Blood Mononucleocyte Cell Assay (PBMC Assay - IL-17); format: cell-based; settings: Homo sapiens, 48 h, IL-17A release, read-out: mean pIC50 (converted)
Experimental: Peripheral Blood Mononucleocvte Cell Assay (PBMC Assay—IL-17) […]
This assay is designed to measure levels of IL-17A secreted from antiCD3/CD28 stimulated frozen Peripheral Blood Mononuclear cells (PBMC) isolated from human blood with the aim of identifying inhibitors of IL-17A release.
2. The compounds for screening are dispensed into a master plate at 10 mM top concentration which are serially diluted 1:3 across 11 points in DMSO, then 500 nL is transferred into a 384-well flat-bottomed Greiner plate to which 50 uL of cell suspension is added: for the single shot screening the highest concentration of compound is 10^−5M; for 11 point full curve dose response studies the highest concentration is 10^−4 M.
As a low control, DMSO (as supplied, for example, by VWR) (final concentration 1%) in column 6 (16 points).
As a high control, 5-(4-fluorophenyl)-2-ureidothiophene-3-carboxamide (obtainable from, for example, Sigma) at a final concentration of 10^−4 M in DMSO should be used in column 18 (16 points).
9. Make the cell suspension at the concentration 8×10^5 cells/mL to give a final number of 40,000 cells/well.
1. Add well mixed CD3/CD28 Dynabeads (as supplied, for example, by Dynal) to achieve ratio bead:cell=2:1 (ie. a dilution of 1 in 20). Mix thoroughly.
2. Dispense the suspension into the 384 Assay Plates using Multidrop (50 uL per well). If the volume of cell suspension is large, mix the suspension after dispensing into every other plate.
3. Cover the plates with the lids and place them to the humidified incubator (37° C., 5% CO2) for 48 hours.
1. Transfer 10 uL of supernatants from assay plates to the MSD plates using Cybiwell. Ensure that all wells are covered with the solution. Tap the plate gently, if some of the wells are not covered with the supernatant.
3. Add 10 uL of MSD IL-17 detecting antibody using multidrop (1 ug/mL in D-PBS without Ca^2+ and Mg^2+ (supplied, for example, by Gibco)).
4. Cover the plates with adhesive foil and incubated with shaking for 3 hours at room temperature
7. Add 35 uL of MSD Read Buffer T×2 using multidrop.
8. Read plates on MSD MA6000 reader using the 384 well plate protocol as per manufacturer's instructions.

IL-17F mRNA expression = experiment: Ex-vivo human skin model, IL-17F mRNA expression; format: cell-based; settings: for Percentage of inhibition of IL-17F mRNA expression: Th17 cytokine cocktail 24 h, RT-PCR

SMILES: CCc1ccc(N(CC(C)C)S(=O)(=O)c2ccc([C@@H](O)CN3CCOCC3)c(CO)c2)cc1 [Example E126, N-(4-ethylphenyl)-4-(1-hydroxy-2-morpholinoethyl)-3-(hydroxymethyl)-N-isobutylbenzenesulfonamide]
- IC50 [1]: 0.794 µM
- Percentage of inhibition of IL-17F mRNA expression (IL-17F mRNA expression; Skin Donor 1, compound 10 μM): 67% *
- Percentage of inhibition of IL-17F mRNA expression (IL-17F mRNA expression; Skin Donor 2, compound 10 μM): 89% *
- Percentage of inhibition of IL-17F mRNA expression (IL-17F mRNA expression; Skin Donor 3, compound 10 μM): 67% *
- Percentage of inhibition of IL-17F mRNA expression (IL-17F mRNA expression; Skin Donor 4, compound 10 μM): 74% *
- gene transcription of il17f (result in words) (IL-17F mRNA expression; four different donors, compound 10 μM): inhibited
